The source made the active and inactive calls.
Tests used:
Assay type in all cases: functional, organism-based
Bacillus subtilis [1] = assay: Antimicrobial activity against Bacillus subtilis at 50 ug/disk
Staphylococcus aureus [2] = assay: Antimicrobial activity against Staphylococcus aureus at 100 ug/disk
Candida albicans [3] = assay: Antimicrobial activity against Candida albicans at 50 ug/disk
Bacillus subtilis [4] = assay: Antimicrobial activity against Bacillus subtilis at 10 ug/disk
Staphylococcus aureus [5] = assay: Antimicrobial activity against Staphylococcus aureus at 25 ug/disk
Candida albicans [6] = assay: Antimicrobial activity against Candida albicans at 25 ug/disk

Measured: Activity

COC1=C(Br)[C@H](O)[C@@]2(C=C1Br)CC(C(=O)NCCCCNC(=O)C1=NO[C@]3(C=C(Br)C(OC)=C(Br)[C@@H]3O)C1)=NO2
active: Bacillus subtilis [1] | Staphylococcus aureus [2] | Candida albicans [3]

COC1=C(Br)[C@H](O)[C@@]2(C=C1Br)CC(C(=O)NCCCCCNC(=O)C1=NO[C@]3(C=C(Br)C(OC)=C(Br)[C@@H]3O)C1)=NO2
active: Bacillus subtilis [1] | Staphylococcus aureus [2] | Candida albicans [3]

COC1=C(Br)[C@@H](O)[C@]2(C=C1Br)CC(C(=O)NCCc1cc(Br)c(OCCCNC(=O)C3=NO[C@]4(C=C(Br)C(OC)=C(Br)[C@@H]4O)C3)c(Br)c1)=NO2
active: Bacillus subtilis [4] | Staphylococcus aureus [5] | Candida albicans [6]

COC1=C(Br)[C@@H](O)[C@]2(C=C1Br)CC(C(=O)NCCC(O)CNC(=O)C1=NO[C@]3(C=C(Br)C(OC)=C(Br)[C@@H]3O)C1)=NO2 (some centres not stated)
active: Bacillus subtilis [1] | Staphylococcus aureus [2] | Candida albicans [3]
